Experimental data reported in US20110152267A1, “Compositions and Methods for Treating Hyperproliferative Disorders” (Texas Tech University System, priority 2009, published 2011).

How the values were obtained:
Format in all cases: cell-based, human
[1] = test system: PANC-1 pancreatic adenocarcinoma cell line; assay: DIMSCAN cytotoxicity, fenretinide + L-threo-sphinganines 3:1 (Example B18)
Experimental: (§1) Cytotoxicity Assay—Once again, cytotoxicity is determined using the DIMSCAN assay system (R. Proffitt et al., Cytometry 24, 204-213 (1996); T. Frgala et al., Mol Cancer Ther. 6:886-97, 2007). The system employs digital imaging microscopy to quantify viable cells, which selectively accumulate fluorescein diacetate to become brightly fluorescent. The system is capable of measuring cytotoxicity over a 4-5 log dynamic range by quenching the residual fluorescence of dead and dying cells with eosin Y and quantifying the total fluorescence of viable cells using digital thresholding. Measured fluorescence is directly proportionate to the number of viable cells. A comparison of the total fluorescence of a drug-treated cell population to the fluorescence of a similar number of untreated cells yields a survival fraction. In brief, 2000 to 10,000 cells/well (depending on size and growth rates) are replicate plated into 60 wells of a 96-well tissue culture plate in 0.1 mL of whole medium and allowed to attach overnight. Drug(s) are then added in 0.05 mL of whole medium to the final concentrations indicated. Drugs (fenretinide, and various chain length L-threo-sphinganines) were tested both as single agents and in a 3:1 ratio of fenretinide:sphinganine. C18-L-threo-sphinganine, or “safingol,” was also tested and results shown for reference. There are 12 wells treated per drug concentration. Twelve wells receive drug vehicle-only to the appropriate final concentration and serve as controls for the plate. Cells are incubated for 96 hours at 37° C. in ambient air with 5% CO2. Fluorescein diacetate is then added to each well in 0.05 mL media to a final concentration of 8 microgram/mL. Cells are incubated for a further 15 minutes at 37° C. and 0.03 mL of 0.5% eosin Y is added to each well. Total fluorescence of viable cells is then measured by digital imaging microscopy. Results were graphed as the ratio of the fluoresecence of drug-treated wells to non-drug treated control wells (i.e., Survival Fraction). All tests were performed at least twice. Representative results are shown.
(§2) The Combination Index (CI) is a term to describe mathematical modeling of the pharmacologic effects on cytotoxicity (cell death) of two drugs in combination based. Cytotoxic “synergy” is defined as a cell death affect which is greater than would be expected from a simple product of the single agent cytotoxicities alone (i.e. an “additive” effect). By Chou-Talalay analysis, a CI<0.9 on a Fraction Affected (“Fa”, i.e. fraction of cells killed) indicates synergy, with smaller numbers indicating greater synergy; a CI of 0.9-1.1 signifies an additive or near-additive effect; and a CI>1.1 means the drug combination is antagonistic.
Fenretinide and L-threo-sphinganines tested in human pancreatic adenocarcinoma (pancreas cancer) cell line, PANC-1.

[2] = test system: HT-29 colorectal adenocarcinoma cell line; assay: DIMSCAN cytotoxicity, fenretinide + L-threo-sphinganines 3:1 (Example B10); conditions: 96 h
Experimental: as §1, §2
Fenretinide and L-threo-sphinganines tested in human colorectal adenocarcinoma (colon cancer) cell line, HT-29.

[3] = test system: SJ-GBM2 Glioblastoma multiforme cell line; assay: DIMSCAN cytotoxicity, fenretinide + L-threo-sphinganines 3:1 (Example B7); parameters: key to CI (Combination Index): Chou-Talalay CI: <0.9 synergy, 0.9-1.1 additive, >1.1 antagonism; conditions: 96 h
Experimental: as §1, §2
Fenretinide and L-threo-sphinganines tested in human Glioblastoma multiforme (brain cancer) cell line, SJ-GBM2.

[4] = test system: A-2058 melanoma cell line; assay: DIMSCAN cytotoxicity, fenretinide + L-threo-sphinganines 3:1 (Example B11); conditions: 96 h
Experimental: as §1, §2
Fenretinide and L-threo-sphinganines tested in human melanoma (skin cancer) cell line, A-2058.

[5] = test system: T98G Glioblastoma multiforme cell line; assay: DIMSCAN cytotoxicity, fenretinide + L-threo-sphinganines 3:1 (Example B6); conditions: 96 h
Experimental: as §1, §2
Fenretinide and L-threo-sphinganines tested in human Glioblastoma multiforme (brain cancer) cell line, T98G.

[6] = test system: U-266 Multiple Myeloma cell line; assay: DIMSCAN cytotoxicity, fenretinide + L-threo-sphinganines 3:1 (Example B3); conditions: 96 h
Experimental: as §1, §2
Fenretinide and L-threo-sphinganines tested in human Multiple Myeloma (a cancer of the blood and bone marrow) cell line, U-266.

[7] = test system: U-118 Glioblastoma cell line; assay: DIMSCAN cytotoxicity, fenretinide + L-threo-sphinganines 3:1 (Example B5); parameters: key to CI (Combination Index): CI<0.9 synergy, 0.9-1.1 additive, >1.1 antagonistic; conditions: U-118 MG, 96 h
Experimental: as §1, §2
Fenretinide and L-threo-sphinganines tested in human Glioblastoma (brain cancer) cell line, U-118.

[8] = test system: PC-3 prostate adenocarcinoma cell line; assay: DIMSCAN cytotoxicity, fenretinide + L-threo-sphinganines 3:1 (Example B17)
Experimental: as §1, §2
Fenretinide and L-threo-sphinganines tested in human prostate adenocarcinoma (prostate cancer) cell line, PC-3.

[9] = 4-HPR 1.5 μM + L-threo-sphinganine 0.5 μM
[10] = 4-HPR 3 μM + L-threo-sphinganine 1 μM
[11] = 4-HPR 6 μM + L-threo-sphinganine 2 μM
[12] = 4-HPR 9 μM + L-threo-sphinganine 3 μM

Q: What does the source list for CCCCCCCCCCC[C@H](O)[C@@H](N)CO [C14]?
A: CI [1, 9]: 3.2; Fa [1, 9]: 0.054; CI [1, 10]: 2.6; Fa [1, 10]: 0.176; CI [1, 11]: 2.1; Fa [1, 11]: 0.450; CI [1, 12]: 0.7; Fa [1, 12]: 0.883; CI (Combination Index) [2, 9]: 1.0; Fa (fraction affected) [2, 9]: 0.215; CI (Combination Index) [2, 10]: 1.3; Fa (fraction affected) [2, 10]: 0.598; CI (Combination Index) [2, 11]: 1.8; Fa (fraction affected) [2, 11]: 0.822; CI (Combination Index) [2, 12]: 1.4; Fa (fraction affected) [2, 12]: 0.982; CI (Combination Index) [3, 9]: 5.0; Fa (fraction affected) [3, 9]: 0.007; CI (Combination Index) [3, 10]: 1.2; Fa (fraction affected) [3, 10]: 0.209; CI (Combination Index) [3, 11]: 1.2; Fa (fraction affected) [3, 11]: 0.598; CI (Combination Index) [3, 12]: 1.4; Fa (fraction affected) [3, 12]: 0.820; CI (Combination Index) [4, 9]: 1.1; Fa (fraction affected) [4, 9]: 0.045; CI (Combination Index) [4, 10]: 1.2; Fa (fraction affected) [4, 10]: 0.088; CI (Combination Index) [4, 11]: 1.4; Fa (fraction affected) [4, 11]: 0.193; CI (Combination Index) [4, 12]: 1.3; Fa (fraction affected) [4, 12]: 0.650; CI (Combination Index) [5, 9]: 1.0; Fa (fraction affected) [5, 9]: 0.544; CI (Combination Index) [5, 10]: 1.6; Fa (fraction affected) [5, 10]: 0.602; CI (Combination Index) [5, 11]: 1.0; Fa (fraction affected) [5, 11]: 0.839; CI (Combination Index) [5, 12]: 0.5; Fa (fraction affected) [5, 12]: 0.941; CI (Combination Index) [6, 9]: 0.9; Fa (fraction affected) [6, 9]: 0.163; CI (Combination Index) [6, 10]: 1.1; Fa (fraction affected) [6, 10]: 0.315; CI (Combination Index) [6, 11]: 1.0; Fa (fraction affected) [6, 11]: 0.687; CI (Combination Index) [6, 12]: 1.3; Fa (fraction affected) [6, 12]: 0.76; CI (Combination Index) [7, 9]: 1.4; Fa (fraction affected) [7, 9]: 0.318; CI (Combination Index) [7, 10]: 1.2; Fa (fraction affected) [7, 10]: 0.586; CI (Combination Index) [7, 11]: 1.2; Fa (fraction affected) [7, 11]: 0.814; CI (Combination Index) [7, 12]: 0.4; Fa (fraction affected) [7, 12]: 0.988; CI [8, 9]: 0.7; Fa [8, 9]: 0.192; CI [8, 10]: 1.0; Fa [8, 10]: 0.283; CI [8, 11]: 1.3; Fa [8, 11]: 0.426; CI [8, 12]: 1.2; Fa [8, 12]: 0.634
